From patent US20040235723A1, “Method of screening abc protein promoter/inhibitor” (priority 2001, published 2004) come the findings set out here.

One data set has as its system W303-1A + pYI. Description: MIC on SD-uracil agar medium, wild strain W303-1A + pYI. Type of data set: cell-based. As to conditions: Saccharomyces cerevisiae, 48 h.
A further data set deals with KHW1 + pYI. Description: MIC on SD-uracil agar medium, SYR1 gene disruption strain KHW1 + pYI. As to conditions: for MIC: Saccharomyces cerevisiae, 48 h; for Increase of sensitivity of SYR1 gene disruption strain (KHW1+pYI) compared with wild strain (W303-1A+pYI): ratio of MIC values. Type of data set: cell-based, Saccharomyces cerevisiae. On the procedure:
(§1) A double gene disruption strain KHW2 deficient in PDR5 (Δsyr1/erg3::HIS Δpdr5::LEU2), a double gene disruption strain KHW4 deficient in SNQ2 which is another drug-discharging ABC transporter of yeast (Δpdr5::LEU2 Δsnq2::HIS3) and a triple gene disruption strain […] deficient in PDR5 and SNQ2 (Δsyr1/erg3::HIS3 Δpdr5::LEU2 Δsnq2::HIS3) were prepared from an SYR1/ERG3 gene disruption strain KHW1 of Saccharomyces cerevisiae W303-1A (wild type) (Δsyr1/erg3::HIS3). Preparation of multiple gene disruption strains was carried out in such a manner that a host strain was transformed by a plasmid for disruption of gene where LEU2 gene or […] gene was a marker and the disrupted strain where each drug-resistant gene was disrupted by insertion of LEU2 or HIS3 gene was selected using recovery of requirement of leucine or histidine as an index. Each of the multiple gene disruption strains was confirmed by an increase in sensitivity to cycloheximide and cerulenin while gene disruption of PDR5 and SNQ2 was confirmed by a southern hybridization.

The subject of the next data set is KHW3 + pYI. Put plainly: MIC on SD-uracil agar medium, triple gene disruption strain KHW3 + pYI. Type of data set: cell-based, Saccharomyces cerevisiae. As to conditions: for MIC: Saccharomyces cerevisiae, 48 h; for Increase of sensitivity of triple gene disruption strain KHW3 compared with wild strain: ratio of MIC values. The method, then: as §1
The next data set deals with KHW3 + pYI-PDR5. Put plainly: MIC on SD-uracil agar medium, KHW3 + pYI-PDR5. Type of data set: cell-based. As to conditions: Saccharomyces cerevisiae, 48 h. The method, then:
as §1

The next data set has as its system KHW4 + pYI. Description: MIC on SD-uracil agar medium, KHW4 + pYI. Type of data set: cell-based. As to conditions: Saccharomyces cerevisiae, 48 h. On the procedure: as §1
The subject of a further data set is KHW4 + pYI-PDR5. Put plainly: MIC on SD-uracil agar medium, KHW4 + pYI-PDR5. The class given is cell-based. As to conditions: Saccharomyces cerevisiae, 48 h. On the procedure:
as §1

A further data set has as its target T1, PDR5 transporter (Saccharomyces cerevisiae, UniProt P33302).
T1 construct: expressed in transfected cells; host or cells: Saccharomyces cerevisiae KHW3 (Δsyr1/erg3::HIS3 Δpdr5::LEU2 Δsnq2::HIS3) carrying plasmid pYI-PDR5
Description: Agar well diffusion growth inhibition assay for PDR5 transporter inhibition, KHW3+pYI-PDR5. The class given is cell-based. As to conditions: cycloheximide 0.04 μg/ml or cerulenin 0.4 μg/ml, without FK 506. On the procedure:
(§2) Yeast cells grown on an SD-uracil medium were suspended in a soft agar dissolved in 4 ml at 50° C. so as to make 1×10^5 cells/ml, mixed after addition of a drug such as cycloheximide or cerulenin if necessary and layered on an SD-uracil medium containing the drug of the same concentration. After the soft agar was solidified, a pore of 8 mm diameter was formed on a part of the soft agar and 50 μl of the test substance were poured thereinto. The plate was incubated at 32° C. for 48 hours and […] of growth inhibition ring around the well was measured whereupon activity of the test substance for inhibiting the discharge of cycloheximide and cerulenin by the PDR transporter was evaluated.
(§3) Unit for the growth inhibition activity was defined as follows. Thus, when a triple gene disruption strain KHW3 (Δsyr1/erg3::HIS3 Δpdr5::LEU2 Δsnq2::HIS3) was used and diameter of the inhibition ring measured by the above agar well diffusion method was plotted to logarithm of cycloheximide concentration where cycloheximide of 8-200 μg/ml was used as a standard substance, it was noted there was a linear relation as shown in FIG. 1. Growth inhibition activity showing an inhibition ring of 20 mm to KHW3 containing pYI was defined as 20 inhibition units per ml (IU/ml) and, using the above-mentioned standard curve of cycloheximide, inhibition units of test substances were calculated. […]
Background: A growth-free zone around the sample is the usual read-out of agar diffusion tests.

A further data set deals with KHW3+pYI. Put plainly: Agar well diffusion growth inhibition assay, cytotoxicity check on KHW3+pYI. The class given is cell-based, Saccharomyces cerevisiae. As to conditions: FK 506 solution 12.5 μg/ml, 50 μl per well; 32° C., 48 hours; no drug in medium. On the procedure: as §2, §3

Read-outs that look alike come from different tables or passages of the source.

One may read the MIC as the least concentration at which growth counts as inhibited.

T1 sequence (P33302 whole entry): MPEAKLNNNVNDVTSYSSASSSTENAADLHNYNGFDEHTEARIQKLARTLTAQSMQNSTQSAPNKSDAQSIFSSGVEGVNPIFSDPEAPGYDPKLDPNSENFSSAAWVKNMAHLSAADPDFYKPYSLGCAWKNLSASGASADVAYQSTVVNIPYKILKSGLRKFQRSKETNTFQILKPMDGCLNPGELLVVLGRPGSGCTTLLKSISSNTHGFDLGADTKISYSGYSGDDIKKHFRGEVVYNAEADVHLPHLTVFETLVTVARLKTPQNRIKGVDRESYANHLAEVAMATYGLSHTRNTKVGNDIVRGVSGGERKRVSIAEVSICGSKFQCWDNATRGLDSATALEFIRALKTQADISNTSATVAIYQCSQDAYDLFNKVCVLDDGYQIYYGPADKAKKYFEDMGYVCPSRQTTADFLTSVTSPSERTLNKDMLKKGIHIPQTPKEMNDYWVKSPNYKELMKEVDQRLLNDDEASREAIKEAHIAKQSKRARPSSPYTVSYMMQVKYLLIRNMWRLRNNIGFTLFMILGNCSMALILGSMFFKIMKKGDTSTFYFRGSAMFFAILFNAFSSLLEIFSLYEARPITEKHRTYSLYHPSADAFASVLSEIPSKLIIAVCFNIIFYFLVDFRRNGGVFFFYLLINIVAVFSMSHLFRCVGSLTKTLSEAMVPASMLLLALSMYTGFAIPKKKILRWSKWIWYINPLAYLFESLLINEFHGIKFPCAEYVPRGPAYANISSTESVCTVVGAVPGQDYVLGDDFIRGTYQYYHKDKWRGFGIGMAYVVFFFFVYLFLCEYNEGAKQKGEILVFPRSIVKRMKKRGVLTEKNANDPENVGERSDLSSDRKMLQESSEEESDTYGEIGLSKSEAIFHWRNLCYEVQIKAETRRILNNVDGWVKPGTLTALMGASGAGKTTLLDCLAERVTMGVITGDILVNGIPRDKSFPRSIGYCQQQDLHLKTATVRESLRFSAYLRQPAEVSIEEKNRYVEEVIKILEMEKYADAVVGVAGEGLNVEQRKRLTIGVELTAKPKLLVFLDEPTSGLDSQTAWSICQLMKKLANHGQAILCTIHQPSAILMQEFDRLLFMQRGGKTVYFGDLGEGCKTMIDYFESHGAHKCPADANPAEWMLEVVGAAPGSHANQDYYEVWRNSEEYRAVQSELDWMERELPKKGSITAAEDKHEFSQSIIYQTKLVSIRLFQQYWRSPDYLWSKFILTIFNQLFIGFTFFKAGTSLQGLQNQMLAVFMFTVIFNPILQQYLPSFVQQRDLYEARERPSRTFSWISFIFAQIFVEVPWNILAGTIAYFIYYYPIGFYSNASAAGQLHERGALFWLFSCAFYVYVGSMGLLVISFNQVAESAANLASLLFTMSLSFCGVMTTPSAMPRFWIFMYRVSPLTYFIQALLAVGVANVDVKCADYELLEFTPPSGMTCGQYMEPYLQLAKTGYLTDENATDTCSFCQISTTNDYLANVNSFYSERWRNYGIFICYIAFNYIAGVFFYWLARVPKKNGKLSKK

As to `C/C=C/C/C=C/CCC(=O)[C@H]1O[C@H]1C(N)=O` [Cerulenin, cerulenin], the minimal inhibitory concentration (MIC) in the data set on W303-1A + pYI (W303-1A + pYI (wild strain), 32° C., two days, read-out: MIC) worked out at 0.8 µg/mL; in the data set with KHW1 + pYI (KHW1 + pYI, 32° C., two days, read-out: MIC), 0.4 µg/mL; in the data set on KHW3 + pYI (KHW3 + pYI, 32° C., two days, read-out: MIC) it was 0.2 µg/mL; in the data set on KHW3 + pYI-PDR5 (KHW3 + pYI-PDR5, 32° C., two days, read-out: MIC) it was 0.8 µg/mL; in the data set on KHW4 + pYI (KHW4 + pYI, 32° C., two days, read-out: MIC), 0.4 µg/mL; with KHW4 + pYI-PDR5, 0.6 µg/mL. In the data set with KHW1 + pYI, the “Increase of sensitivity of SYR1 gene disruption strain (KHW1+pYI) compared with wild strain (W303-1A+pYI)” value is given as 2 fold. In addition, in the data set on KHW3 + pYI, the “Increase of sensitivity of triple gene disruption strain KHW3 compared with wild strain” value stood at 4 fold. At PDR5 transporter, the “Growth inhibition of KHW3+pYI-PDR5 by sole drug in medium” value was “not inhibited”.

For `C[C@@H]1C[C@@H]([C@H](O)CC2CC(=O)NC(=O)C2)C(=O)[C@@H](C)C1` [Cycloheximide, cycloheximide], the minimal inhibitory concentration (MIC) in the data set with W303-1A + pYI was 0.16 µg/mL; in the data set with KHW1 + pYI it was 0.04 µg/mL; in the data set with KHW3 + pYI, 0.01 µg/mL; in the data set with KHW3 + pYI-PDR5 it was 0.16 µg/mL; with KHW4 + pYI, 0.02 µg/mL; with KHW4 + pYI-PDR5, greater than 0.32 µg/mL. Also, the “Increase of sensitivity of SYR1 gene disruption strain (KHW1+pYI) compared with wild strain (W303-1A+pYI)” value with KHW1 + pYI worked out at 4 fold. The “Increase of sensitivity of triple gene disruption strain KHW3 compared with wild strain” value in the data set with KHW3 + pYI was determined as 16 fold. For the same compound, on PDR5 transporter, the “Growth inhibition of KHW3+pYI-PDR5 by sole drug in medium” value is listed as “not inhibited”.

Take `C=CC[C@@H]1/C=C(\C)C[C@H](C)C[C@H](OC)[C@H]2O[C@@](O)(C(=O)C(=O)N3CCCC[C@H]3C(=O)O[C@H](/C(C)=C/[C@@H]3CC[C@@H](O)[C@H](OC)C3)[C@H](C)[C@@H](O)CC1=O)[C@H](C)C[C@@H]2OC` [FK 506]: the “Growth inhibition of KHW3+pYI by test substance alone (cytotoxicity)” value with KHW3+pYI was “did not inhibit the growth of KHW3+pYI”.
